The target of assay [1] is T1, Angiopoietin-1 receptor (Homo sapiens, UniProt Q02763). As to the kind of experiment: Inhibition of Tie2 after 1 hr.
The target of assay [2] is T1, Angiopoietin-1 receptor. As to the kind of experiment: Inhibition of Tie2 autophosphorylation by cell based assay.
For assay [3], the target named is T2, Ephrin type-B receptor 4 (Homo sapiens, UniProt P54760).
T2 sequence (P54760 whole entry): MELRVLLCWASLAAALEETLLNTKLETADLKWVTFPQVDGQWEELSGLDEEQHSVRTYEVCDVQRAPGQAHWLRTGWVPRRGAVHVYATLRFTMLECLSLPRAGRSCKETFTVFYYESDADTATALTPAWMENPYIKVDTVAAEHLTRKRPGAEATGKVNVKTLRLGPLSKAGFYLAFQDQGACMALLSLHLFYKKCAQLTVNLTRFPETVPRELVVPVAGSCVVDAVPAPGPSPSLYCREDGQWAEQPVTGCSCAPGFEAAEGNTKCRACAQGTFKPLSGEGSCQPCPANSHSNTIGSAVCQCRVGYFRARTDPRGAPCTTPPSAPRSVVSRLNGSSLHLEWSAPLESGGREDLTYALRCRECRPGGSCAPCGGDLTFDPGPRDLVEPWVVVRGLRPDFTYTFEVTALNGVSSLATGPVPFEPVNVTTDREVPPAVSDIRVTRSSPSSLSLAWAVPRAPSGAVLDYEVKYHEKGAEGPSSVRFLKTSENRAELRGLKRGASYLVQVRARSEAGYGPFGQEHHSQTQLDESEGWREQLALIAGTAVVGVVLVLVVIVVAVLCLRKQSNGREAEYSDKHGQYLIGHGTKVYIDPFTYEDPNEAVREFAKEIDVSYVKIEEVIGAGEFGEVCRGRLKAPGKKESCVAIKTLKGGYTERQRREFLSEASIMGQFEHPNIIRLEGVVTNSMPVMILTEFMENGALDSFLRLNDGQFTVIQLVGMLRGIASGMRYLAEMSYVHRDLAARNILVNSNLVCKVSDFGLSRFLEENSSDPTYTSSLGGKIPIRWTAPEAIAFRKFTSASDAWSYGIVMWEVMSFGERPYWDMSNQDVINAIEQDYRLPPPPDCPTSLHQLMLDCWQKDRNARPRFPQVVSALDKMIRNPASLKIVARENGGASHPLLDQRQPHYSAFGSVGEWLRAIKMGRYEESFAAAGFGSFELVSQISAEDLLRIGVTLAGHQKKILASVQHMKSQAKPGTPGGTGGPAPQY
Description: Inhibition of EphB4 after 1 hr.

The target in assay [4] is Tyrosine-protein kinase ABL1 (Homo sapiens, UniProt P00519). As to the kind of experiment: Inhibition of Abl1 after 1 hr.
Assay [5] concerns the target Tyrosine-protein kinase BTK (Homo sapiens, UniProt Q06187). As to the kind of experiment: Inhibition of Btk after 1 hr.
Assay [6] has as its target Ephrin type-A receptor 2 (Homo sapiens, UniProt P29317). Description: Inhibition of EPHA2 after 1 hr.
The target in assay [7] is T3, Receptor-type tyrosine-protein kinase FLT3 (Homo sapiens, UniProt P36888).
T3 sequence (P36888 whole entry): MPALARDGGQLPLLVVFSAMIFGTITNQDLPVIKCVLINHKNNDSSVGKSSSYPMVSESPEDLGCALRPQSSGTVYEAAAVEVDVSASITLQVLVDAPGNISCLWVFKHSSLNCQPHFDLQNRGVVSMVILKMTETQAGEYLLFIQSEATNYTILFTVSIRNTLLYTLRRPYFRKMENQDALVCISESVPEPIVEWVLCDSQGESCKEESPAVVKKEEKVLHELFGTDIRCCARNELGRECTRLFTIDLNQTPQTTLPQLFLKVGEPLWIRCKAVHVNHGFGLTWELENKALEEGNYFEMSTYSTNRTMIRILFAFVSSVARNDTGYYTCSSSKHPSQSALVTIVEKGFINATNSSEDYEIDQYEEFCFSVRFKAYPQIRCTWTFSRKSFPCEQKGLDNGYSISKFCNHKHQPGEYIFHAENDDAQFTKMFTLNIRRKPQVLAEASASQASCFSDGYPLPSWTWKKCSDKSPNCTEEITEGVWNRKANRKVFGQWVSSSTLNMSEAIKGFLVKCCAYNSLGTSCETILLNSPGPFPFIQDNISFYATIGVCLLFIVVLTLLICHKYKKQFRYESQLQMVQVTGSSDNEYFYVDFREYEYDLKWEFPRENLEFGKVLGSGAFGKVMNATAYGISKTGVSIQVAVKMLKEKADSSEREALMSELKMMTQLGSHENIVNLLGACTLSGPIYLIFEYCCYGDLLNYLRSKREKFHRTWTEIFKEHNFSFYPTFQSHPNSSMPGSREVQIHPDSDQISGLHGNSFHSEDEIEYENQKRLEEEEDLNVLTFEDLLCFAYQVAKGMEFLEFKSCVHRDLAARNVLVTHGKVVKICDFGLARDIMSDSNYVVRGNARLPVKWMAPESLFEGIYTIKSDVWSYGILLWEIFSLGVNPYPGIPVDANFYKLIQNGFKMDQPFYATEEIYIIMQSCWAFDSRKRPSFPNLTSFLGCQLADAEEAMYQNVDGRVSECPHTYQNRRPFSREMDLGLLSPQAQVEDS
Description: Inhibition of Flt3 after 1 hr.

Assay [8] concerns the target Tyrosine-protein kinase Lyn (Homo sapiens, UniProt P07948). Description: Inhibition of Lyn after 1 hr.
Assay [9] concerns the target Platelet-derived growth factor receptor beta (Homo sapiens, UniProt P09619). Description: Inhibition of PDGFRbeta after 1 hr.
In assay [10] the target is Vascular endothelial growth factor receptor 1 (Homo sapiens, UniProt P17948). As to the kind of experiment: Inhibition of VEGFR1 after 1 hr.
In assay [11] the target is Vascular endothelial growth factor receptor 2 (Homo sapiens, UniProt P35968). As to the kind of experiment: Inhibition of VEGFR2 after 1 hr.
Assay [12] concerns the target Vascular endothelial growth factor receptor 3 (Homo sapiens, UniProt P35916). As to the kind of experiment: Inhibition of VEGFR3 after 1 hr.

Our source for the IC50 values is ChEMBL document CHEMBL1153704, “Imidazo[1,2-a]pyrazine diaryl ureas: inhibitors of the receptor tyrosine kinase EphB4” (Bioorg Med Chem Lett, 2009).

T1 sequence (Q02763 whole entry): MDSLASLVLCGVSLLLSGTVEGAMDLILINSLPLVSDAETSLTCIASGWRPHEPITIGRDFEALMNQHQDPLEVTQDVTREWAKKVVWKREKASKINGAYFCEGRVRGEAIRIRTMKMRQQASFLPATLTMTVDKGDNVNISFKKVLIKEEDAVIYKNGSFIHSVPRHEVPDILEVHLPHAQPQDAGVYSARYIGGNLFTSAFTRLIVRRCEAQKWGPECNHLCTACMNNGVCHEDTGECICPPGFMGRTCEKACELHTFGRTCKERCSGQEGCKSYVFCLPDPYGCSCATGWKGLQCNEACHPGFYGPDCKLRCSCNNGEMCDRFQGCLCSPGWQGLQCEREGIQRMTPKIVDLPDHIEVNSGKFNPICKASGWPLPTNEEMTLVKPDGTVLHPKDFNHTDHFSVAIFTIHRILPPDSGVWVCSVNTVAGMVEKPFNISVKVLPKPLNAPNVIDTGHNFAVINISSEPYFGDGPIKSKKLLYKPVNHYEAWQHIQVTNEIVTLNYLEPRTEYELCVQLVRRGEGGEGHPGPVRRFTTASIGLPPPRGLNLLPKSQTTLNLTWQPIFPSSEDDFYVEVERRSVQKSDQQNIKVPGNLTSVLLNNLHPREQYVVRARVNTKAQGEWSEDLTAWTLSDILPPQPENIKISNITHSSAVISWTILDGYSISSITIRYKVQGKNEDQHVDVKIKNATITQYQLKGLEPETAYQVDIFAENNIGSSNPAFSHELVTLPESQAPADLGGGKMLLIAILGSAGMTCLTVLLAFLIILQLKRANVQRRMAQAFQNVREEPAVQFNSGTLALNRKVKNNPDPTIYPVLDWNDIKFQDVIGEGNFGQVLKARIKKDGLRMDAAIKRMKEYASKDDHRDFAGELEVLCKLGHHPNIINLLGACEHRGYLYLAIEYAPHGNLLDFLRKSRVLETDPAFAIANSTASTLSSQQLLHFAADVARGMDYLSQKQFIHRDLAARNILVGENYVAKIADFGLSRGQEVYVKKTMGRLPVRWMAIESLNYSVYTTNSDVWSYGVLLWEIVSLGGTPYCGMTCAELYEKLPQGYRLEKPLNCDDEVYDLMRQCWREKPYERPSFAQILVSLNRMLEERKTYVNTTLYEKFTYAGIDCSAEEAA
Chain of Tyrosine-protein kinase Lyn (P07948 whole entry): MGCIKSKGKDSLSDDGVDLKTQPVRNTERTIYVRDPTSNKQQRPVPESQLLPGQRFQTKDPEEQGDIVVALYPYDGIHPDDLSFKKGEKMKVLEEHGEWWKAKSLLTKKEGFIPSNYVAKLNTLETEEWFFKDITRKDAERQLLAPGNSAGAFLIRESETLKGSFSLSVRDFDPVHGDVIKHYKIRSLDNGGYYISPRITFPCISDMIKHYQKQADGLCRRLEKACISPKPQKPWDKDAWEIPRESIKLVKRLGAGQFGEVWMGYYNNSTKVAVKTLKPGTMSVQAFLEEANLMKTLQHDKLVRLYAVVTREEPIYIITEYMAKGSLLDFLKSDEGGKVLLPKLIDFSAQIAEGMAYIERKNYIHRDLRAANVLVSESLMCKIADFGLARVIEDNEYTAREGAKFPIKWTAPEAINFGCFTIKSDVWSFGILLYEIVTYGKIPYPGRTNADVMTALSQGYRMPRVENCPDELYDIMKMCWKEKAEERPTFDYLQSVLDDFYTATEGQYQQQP
Chain of Platelet-derived growth factor receptor beta (P09619 whole entry): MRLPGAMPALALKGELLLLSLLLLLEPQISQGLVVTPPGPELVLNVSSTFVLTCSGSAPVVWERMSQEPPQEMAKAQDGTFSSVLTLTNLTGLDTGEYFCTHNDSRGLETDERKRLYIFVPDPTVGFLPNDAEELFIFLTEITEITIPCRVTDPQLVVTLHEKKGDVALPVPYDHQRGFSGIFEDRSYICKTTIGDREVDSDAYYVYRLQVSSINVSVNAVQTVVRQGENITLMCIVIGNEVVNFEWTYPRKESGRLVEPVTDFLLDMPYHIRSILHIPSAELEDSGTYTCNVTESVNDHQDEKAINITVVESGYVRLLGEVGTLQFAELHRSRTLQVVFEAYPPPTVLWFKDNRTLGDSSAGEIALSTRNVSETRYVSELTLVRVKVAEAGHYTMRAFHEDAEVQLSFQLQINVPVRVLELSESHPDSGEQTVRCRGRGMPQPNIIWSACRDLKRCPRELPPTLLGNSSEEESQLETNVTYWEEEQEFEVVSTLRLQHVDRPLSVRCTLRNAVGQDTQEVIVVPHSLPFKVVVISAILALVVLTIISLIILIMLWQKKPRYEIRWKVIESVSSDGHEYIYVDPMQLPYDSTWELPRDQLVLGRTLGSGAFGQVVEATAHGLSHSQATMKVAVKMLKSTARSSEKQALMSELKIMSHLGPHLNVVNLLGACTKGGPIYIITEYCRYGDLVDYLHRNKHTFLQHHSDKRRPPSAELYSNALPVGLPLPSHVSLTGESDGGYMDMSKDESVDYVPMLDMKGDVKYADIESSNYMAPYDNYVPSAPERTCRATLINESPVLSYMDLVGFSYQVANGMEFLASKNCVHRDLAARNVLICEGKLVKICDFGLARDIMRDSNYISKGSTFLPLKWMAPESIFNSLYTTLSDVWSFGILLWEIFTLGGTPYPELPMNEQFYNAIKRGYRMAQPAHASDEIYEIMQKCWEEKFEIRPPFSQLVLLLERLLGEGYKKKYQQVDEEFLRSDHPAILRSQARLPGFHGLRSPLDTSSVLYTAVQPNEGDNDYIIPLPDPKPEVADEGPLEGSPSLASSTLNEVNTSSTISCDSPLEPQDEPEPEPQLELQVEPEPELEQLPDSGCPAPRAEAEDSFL
Chain of Tyrosine-protein kinase BTK (Q06187 whole entry): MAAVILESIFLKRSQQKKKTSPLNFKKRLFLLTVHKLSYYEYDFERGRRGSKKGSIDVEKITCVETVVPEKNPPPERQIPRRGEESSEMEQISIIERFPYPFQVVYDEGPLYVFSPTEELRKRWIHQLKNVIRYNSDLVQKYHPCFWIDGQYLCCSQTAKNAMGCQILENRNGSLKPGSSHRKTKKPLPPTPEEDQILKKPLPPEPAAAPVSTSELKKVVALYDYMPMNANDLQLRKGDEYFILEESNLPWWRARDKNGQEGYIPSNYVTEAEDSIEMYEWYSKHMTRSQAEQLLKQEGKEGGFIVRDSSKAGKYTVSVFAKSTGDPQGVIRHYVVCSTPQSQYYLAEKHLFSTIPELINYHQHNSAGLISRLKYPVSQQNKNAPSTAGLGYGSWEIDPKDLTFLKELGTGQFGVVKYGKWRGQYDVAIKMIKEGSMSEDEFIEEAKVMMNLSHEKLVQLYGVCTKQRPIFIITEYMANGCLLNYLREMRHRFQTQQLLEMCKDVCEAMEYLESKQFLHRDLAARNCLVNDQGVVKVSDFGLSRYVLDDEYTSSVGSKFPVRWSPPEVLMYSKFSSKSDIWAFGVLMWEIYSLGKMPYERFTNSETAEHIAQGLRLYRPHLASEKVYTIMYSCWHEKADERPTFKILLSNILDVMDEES
Chain of Vascular endothelial growth factor receptor 3 (P35916 whole entry): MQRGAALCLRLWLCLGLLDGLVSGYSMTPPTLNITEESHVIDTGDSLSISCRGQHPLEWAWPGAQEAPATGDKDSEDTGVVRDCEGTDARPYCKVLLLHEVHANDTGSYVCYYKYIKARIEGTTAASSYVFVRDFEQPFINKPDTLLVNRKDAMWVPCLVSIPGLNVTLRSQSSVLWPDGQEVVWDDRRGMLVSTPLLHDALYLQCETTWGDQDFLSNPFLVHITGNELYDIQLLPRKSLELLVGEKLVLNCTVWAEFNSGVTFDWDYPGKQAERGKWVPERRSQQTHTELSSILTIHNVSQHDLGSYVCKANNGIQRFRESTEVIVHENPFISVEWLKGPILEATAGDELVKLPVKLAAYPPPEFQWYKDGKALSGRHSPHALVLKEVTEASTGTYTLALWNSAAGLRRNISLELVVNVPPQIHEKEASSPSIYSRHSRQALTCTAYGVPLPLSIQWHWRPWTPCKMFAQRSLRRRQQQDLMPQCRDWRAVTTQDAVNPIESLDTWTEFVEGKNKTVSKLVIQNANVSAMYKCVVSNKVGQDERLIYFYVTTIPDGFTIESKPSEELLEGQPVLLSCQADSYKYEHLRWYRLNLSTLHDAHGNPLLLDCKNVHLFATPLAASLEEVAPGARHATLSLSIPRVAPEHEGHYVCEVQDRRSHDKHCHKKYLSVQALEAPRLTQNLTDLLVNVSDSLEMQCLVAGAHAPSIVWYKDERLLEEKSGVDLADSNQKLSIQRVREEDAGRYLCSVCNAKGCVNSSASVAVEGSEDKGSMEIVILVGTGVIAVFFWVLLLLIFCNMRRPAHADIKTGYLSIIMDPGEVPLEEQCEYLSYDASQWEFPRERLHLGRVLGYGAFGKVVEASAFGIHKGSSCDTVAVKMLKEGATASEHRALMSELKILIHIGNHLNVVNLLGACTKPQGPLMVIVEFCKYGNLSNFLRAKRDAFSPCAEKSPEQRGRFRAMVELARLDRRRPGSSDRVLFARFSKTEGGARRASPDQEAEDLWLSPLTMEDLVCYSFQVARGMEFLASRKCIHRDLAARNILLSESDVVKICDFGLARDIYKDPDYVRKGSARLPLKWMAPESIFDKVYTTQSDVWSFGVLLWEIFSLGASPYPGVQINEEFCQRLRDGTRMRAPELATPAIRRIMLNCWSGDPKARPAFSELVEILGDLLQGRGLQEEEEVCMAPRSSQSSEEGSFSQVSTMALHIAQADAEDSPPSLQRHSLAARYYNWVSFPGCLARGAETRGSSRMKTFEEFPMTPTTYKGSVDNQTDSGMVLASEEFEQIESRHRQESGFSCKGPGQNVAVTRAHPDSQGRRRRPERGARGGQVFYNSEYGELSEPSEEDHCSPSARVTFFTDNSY

As a reminder, the IC50 is the midpoint of a concentration-inhibition curve. Lower therefore signals greater potency. Take `COc1ccc(Br)cc1NC(=O)Nc1cccc(-c2cn3ccnc3c(NCc3ccncc3)n2)c1`: the figures for the IC50 in [1] and in assay [2] were 75 nM and 250 nM, respectively.
As to `O=C(Nc1cccc(-c2cn3ccnc3c(NCc3ccncc3)n2)c1)Nc1cc(C(F)(F)F)ccc1F`, the IC50 in assay [1] stood at 37 nM; in assay [2] it was 100 nM.
For the compound `O=C(Nc1cccc(-c2cn3ccnc3c(NCc3ccncc3)n2)c1)Nc1cccc(C(F)(F)F)c1`, the IC50 in [3] was found to be 62 nM; in assay [4] it was 14400 nM; in assay [5], 7800 nM; in assay [6], 35 nM; in assay [7] it was 2000 nM; in [8], 6000 nM. For the same compound, the IC50 in assay [9] stood at 7700 nM; in assay [1] it was 67 nM; in [10] it was 747 nM; in assay [11], 33 nM; in [12] it was 71 nM.
On to `COc1ccc(C(F)(F)F)cc1NC(=O)Nc1cccc(-c2cn3ccnc3c(NCc3ccncc3)n2)c1`, for which the IC50 in [1] came out at 33 nM; in assay [2], 50 nM.
